From patent US11987575B2, “Tricyclic compounds as BCR-ABL inhibitors” (ASCENTAGE PHARMA (SUZHOU) CO., LTD., priority 2019, dated 2024)

Legend:
BaF3(WT) = BaF3(WT) (Homo sapiens, UniProt P00519); assay: WST (CCK-8) anti-proliferative assay, BaF3 WT; settings: read-out: BaF3(WT); BaF3 WT cells, 72 h treatment, CCK-8 readout OD 450 nm
BaF3 (T315I mutant) = BaF3 (T315I mutant) (Homo sapiens, UniProt P00519, T315I, cells depend on it); assay: WST (CCK-8) anti-proliferative assay, BaF3 T315I mutant; settings: read-out: BaF3 (T315I mutant), 72 h treatment, CCK-8 readout OD 450 nm

GI50 (BaF3(WT)) [nM] | GI50 (BaF3 (T315I mutant)) [nM] | SMILES
41 | 208 | CC(C)N1c2c(-c3ccn[nH]3)cc(C(=O)Nc3ccc(OC(F)(F)Cl)cc3)cc2C2CCC(NC(=O)N3CCN(C)CC3)C21 (stereo not shown) [Compound 14]
35 | 346 | CC(C)N1c2c(-c3ccn[nH]3)cc(C(=O)Nc3ccc(OC(F)(F)Cl)cc3)cc2C2CCC(NS(=O)(=O)N3CCN(C)CC3)C21 (stereo not shown) [Compound 15]
12 | 252 | CC(C)N1c2c(-c3ccn[nH]3)cc(C(=O)Nc3ccc(OC(F)(F)Cl)cc3)cc2C2CCC(NS(=O)(=O)N3CCCCC3)C21 (stereo not shown) [Compound 16]
1060 | 1670 | CC(C)N1c2c(-c3ccn[nH]3)cc(C(=O)Nc3ccc(OC(F)(F)Cl)cc3)cc2C2CCC(NS(=O)(=O)c3nnc[nH]3)C21 (stereo not shown) [Compound 17]
13 | 126 | COCCS(=O)(=O)NC1CCC2c3cc(C(=O)Nc4ccc(OC(F)(F)Cl)cc4)cc(-c4ccn[nH]4)c3N(C(C)C)C12 (stereo not shown) [Compound 18]
6 | 97 | CC(C)NS(=O)(=O)NC1CCC2c3cc(C(=O)Nc4ccc(OC(F)(F)Cl)cc4)cc(-c4ccn[nH]4)c3N(C(C)C)C12 (stereo not shown) [Compound 19]
42 | 29 | CC(=O)N[C@@H]1CC[C@H]2c3cc(C(=O)Nc4ccc(OC(F)(F)Cl)cc4)cc(-c4cncnc4)c3N(C(C)C)[C@@H]12 [Compound 20-A, (3R,3aR,8bS)-3-acetamido-N-(4-(chlorodifluoromethoxy)phenyl)-4-isopropyl-5-(pyrimidin-5-yl)-1,2,3,3a,4,8b-hexahydrocyclopenta[b]indole-7-carboxamide]
365 | 1380 | CC(=O)N[C@H]1CC[C@@H]2c3cc(C(=O)Nc4ccc(OC(F)(F)Cl)cc4)cc(-c4cncnc4)c3N(C(C)C)[C@H]12 [Compound 20-B, (3S,3aS,8bR)-3-acetamido-N-(4-(chlorodifluoromethoxy)phenyl)-4-isopropyl-5-(pyrimidin-5-yl)-1,2,3,3a,4,8b-hexahydrocyclopenta[b]indole-7-carboxamide]
9 | 44 | CC(=O)NC1CCC2c3cc(C(=O)Nc4ccc(OC(F)(F)Cl)cc4)cc(-c4cncnc4)c3N(C(C)C)C12 (stereo not shown) [Compound 20]
27 | 176 | CC(=O)NC1CCC2c3cc(C(=O)Nc4ccc(OC(F)(F)Cl)cc4)cc(-c4ccncc4)c3N(C(C)C)C12 (stereo not shown) [Compound 21]
3 | 21 | CC(=O)N[C@@H]1CC[C@H]2c3cc(C(=O)Nc4ccc(OC(F)(F)Cl)cc4)cc(-c4ccn[nH]4)c3N(CC(C)(C)C)[C@@H]12 [Compound 22-A, (3R,3aR,8bS)-3-acetamido-N-(4-(chlorodifluoromethoxy)phenyl)-4-neopentyl-5-(1H-pyrazol-5-yl)-1,2,3,3a,4,8b-hexahydrocyclopenta[b]indole-7-carboxamide]
482 | 1010 | CC(=O)N[C@H]1CC[C@@H]2c3cc(C(=O)Nc4ccc(OC(F)(F)Cl)cc4)cc(-c4ccn[nH]4)c3N(CC(C)(C)C)[C@H]12 [Compound 22-B, (3S,3aS,8bR)-3-acetamido-N-(4-(chlorodifluoromethoxy)phenyl)-4-neopentyl-5-(1H-pyrazol-5-yl)-1,2,3,3a,4,8b-hexahydrocyclopenta[b]indole-7-carboxamide]
3 | 21 | CC(=O)NC1CCC2c3cc(C(=O)Nc4ccc(OC(F)(F)Cl)cc4)cc(-c4ccn[nH]4)c3N(CC(C)(C)C)C12 (stereo not shown) [Compound 22]
10 | 81 | CC(=O)NC1CCC2c3cc(C(=O)Nc4ccc(OC(F)(F)Cl)cc4)cc(-c4ccn[nH]4)c3N(CC(C)C)C12 (stereo not shown) [Compound 23]
17 | 114 | CC(C)N1c2c(-c3ccn[nH]3)cc(C(=O)Nc3ccc(OC(F)(F)Cl)cc3)cc2C2CCC(NS(=O)(=O)C3CC3)C21 (stereo not shown) [Compound 24]
15 | 183 | CC(C)N1c2c(-c3ccn[nH]3)cc(C(=O)Nc3ccc(OC(F)(F)Cl)cc3)cc2C2CCC(NS(=O)(=O)C3CCOCC3)C21 (stereo not shown) [Compound 25]

GI50 (BaF3(WT)) [nM] | GI50 (BaF3 (T315I mutant)) [nM] | SMILES
6 | 41 | CC(=O)N[C@@H]1CC[C@H]2c3cc(C(=O)Nc4ccc(OC(F)(F)Cl)cc4)cc(-c4cccnc4)c3N(C(C)C)[C@@H]12 [Compound 26-A, (3R,3aR,8bS)-3-acetamido-N-(4-(chlorodifluoromethoxy)phenyl)-4-isopropyl-5-(pyridin-3-yl)-1,2,3,3a,4,8b-hexahydrocyclopenta[b]indole-7-carboxamide]
186 | 956 | CC(=O)N[C@H]1CC[C@@H]2c3cc(C(=O)Nc4ccc(OC(F)(F)Cl)cc4)cc(-c4cccnc4)c3N(C(C)C)[C@H]12 [Compound 26-B, (3S,3aS,8bR)-3-acetamido-N-(4-(chlorodifluoromethoxy)phenyl)-4-isopropyl-5-(pyridin-3-yl)-1,2,3,3a,4,8b-hexahydrocyclopenta[b]indole-7-carboxamide]
12 | 65 | CC(=O)NC1CCC2c3cc(C(=O)Nc4ccc(OC(F)(F)Cl)cc4)cc(-c4cccnc4)c3N(C(C)C)C12 (stereo not shown) [Compound 26]
1240 | 5060 | CC(C)N1c2c(-c3ccn[nH]3)cc(C(=O)Nc3ccc(OC(F)(F)Cl)cc3)cc2C2CCC(NC(=O)C3CCNCC3)C21 (stereo not shown) [Compound 27]
19 | 168 | CCOC(=O)NC1CCC2c3cc(C(=O)Nc4ccc(OC(F)(F)Cl)cc4)cc(-c4ccn[nH]4)c3N(C(C)C)C12 (stereo not shown) [Compound 28]
177 | 1260 | CC(C)N1c2c(-c3ccn[nH]3)cc(C(=O)Nc3ccc(OC(F)(F)Cl)cc3)cc2C2CCC(NC(=O)C3CN(C)C3)C21 (stereo not shown) [Compound 29, N-(4-(chlorodifluoromethoxy)phenyl)-4-isopropyl-3-(1-methylazetidine-3-carboxamido)-5-(1H-pyrazol-5-yl)-1,2,3,3a,4,8b-hexahydrocyclopenta[b]indole-7-carboxamide]
16 | 64 | CC(C)N1c2c(-c3ccn[nH]3)cc(C(=O)Nc3ccc(OC(F)(F)Cl)cc3)cc2C2CCC(NC(=O)c3cocn3)C21 (stereo not shown) [Compound 30]
15 | 40 | CC(C)N1c2c(-c3ccn[nH]3)cc(C(=O)Nc3ccc(OC(F)(F)Cl)cc3)cc2C2CCC(NC(=O)C3CCOCC3)C21 (stereo not shown) [Compound 31]
491 | 2110 | CC(C)N1c2c(-c3ccn[nH]3)cc(C(=O)Nc3ccc(OC(F)(F)Cl)cc3)cc2C2CCC(NC(=O)C3CCN(C)CC3)C21 (stereo not shown) [Compound 32]
14 | 109 | CC(C)N1c2c(-c3ccn[nH]3)cc(C(=O)Nc3ccc(OC(F)(F)Cl)cc3)cc2C2CCC(NC(=O)Nc3cnccn3)C21 (stereo not shown) [Compound 33, N-(4-(chlorodifluoromethoxy)phenyl)-4-isopropyl-3-(3-(pyrazin-2-yl)ureido)-5-(1H-pyrazol-5-yl)-1,2,3,3a,4,8b-hexahydrocyclopenta[b]indole-7-carboxamide]
17 | 411 | CC(C)N1c2c(-c3ccn[nH]3)cc(C(=O)Nc3ccc(OC(F)(F)Cl)cc3)cc2C2CCC(Nc3cnccn3)C21 (stereo not shown) [Compound 34, N-(4-(chlorodifluoromethoxy)phenyl)-4-isopropyl-3-(pyrazin-2-ylamino)-5-(1H-pyrazol-5-yl)-1,2,3,3a,4,8b-hexahydrocyclopenta[b]indole-7-carboxamide]
12 | 55 | CC(C)N1c2c(-c3ccn[nH]3)cc(C(=O)Nc3ccc(OC(F)(F)Cl)cc3)cc2C2CCC(N3CCCC3=O)C21 (stereo not shown) [Compound 35, N-(4-(chlorodifluoromethoxy)phenyl)-4-isopropyl-3-(2-oxopyrrolidin-1-yl)-5-(1H-pyrazol-5-yl)-1,2,3,3a,4,8b-hexahydrocyclopenta[b]indole-7-carboxamide]
9 | 84 | CC(C)N1c2c(-c3ccn[nH]3)cc(C(=O)Nc3ccc(OC(F)(F)Cl)cc3)cc2C2CCC(N3CCCCC3=O)C21 (stereo not shown) [Compound 36, N-(4-(chlorodifluoromethoxy)phenyl)-4-isopropyl-3-(2-oxopiperidin-1-yl)-5-(1H-pyrazol-5-yl)-1,2,3,3a,4,8b-hexahydrocyclopenta[b]indole-7-carboxamide]
25 | 245 | CC(C)N1c2c(-c3ccn[nH]3)cc(C(=O)Nc3ccc(OC(F)(F)Cl)cc3)cc2C2CCC(N3CCCS3(=O)=O)C21 (stereo not shown) [Compound 37, N-(4-(chlorodifluoromethoxy)phenyl)-3-(1,1-dioxidoisothiazolidin-2-yl)-4-isopropyl-5-(1H-pyrazol-5-yl)-1,2,3,3a,4,8b-hexahydrocyclopenta[b]indole-7-carboxamide]
18 | 77 | CC(C)N1c2c(-c3ccn[nH]3)cc(C(=O)Nc3ccc(OC(F)(F)Cl)cc3)cc2C2CCC(N3CCNC3=O)C21 (stereo not shown) [Compound 38, N-(4-(chlorodifluoromethoxy)phenyl)-4-isopropyl-3-(2-oxoimidazolidin-1-yl)-5-(1H-pyrazol-5-yl)-1,2,3,3a,4,8b-hexahydrocyclopenta[b]indole-7-carboxamide]
2760 | 5710 | CC(C)N1c2c(-c3ccn[nH]3)cc(C(=O)Nc3ccc(OC(F)(F)Cl)cc3)cc2C2CCC(NC(=O)CCC(=O)O)C21 (stereo not shown) [Compound 39, 4-((7-((4-(chlorodifluoromethoxy)phenyl)carbamoyl)-4-isopropyl-5-(1H-pyrazol-5-yl)-1,2,3,3a,4,8b-hexahydrocyclopenta[b]indol-3-yl)amino)-4-oxobutanoic acid]
